Results taken from patent publication US11793845B2, “Composition for ameliorating peripheral sensory neuropathy” (KINKI UNIVERSITY, priority 2016, dated 2023).

Key:
[1] = tested on: Peripheral Sensory Neuropathy Induced by Paclitaxel in Mice; assay: cold plate test, paclitaxel-induced peripheral sensory neuropathy; format: in vivo; conditions: paclitaxel 6 mg/kg alone; Day 3
Description: The effect of the Lentinus edodes mycelium extract on the paresthesia to cold stimulation was tested by performing the cold plate test. The mice in the three groups in the above (1) were put on a cold plate set to 10° C. and a response time for avoidance (a latency) was measured. The shorter latency means that the mouse avoids the cold stimulation of the cold plate more.
In the present test, the mice were divided into four groups by a difference in test objects. As in Example 1, male Balb/c mice of 6 to 7 weeks old were used. The mice were divided into a total of four groups, a control group, a paclitaxel administration group, and two different paclitaxel and Lentinus edodes mycelium extract administration groups (paclitaxel+Lentinus edodes mycelium extract administration groups). […] Further, a group in which the Lentinus edodes mycelium extract was administered to each mouse once a day at a dose of 1 g/kg (hereinafter referred to as “1 g/kg administration group”) and a group in which the Lentinus edodes mycelium extract was administered to each mouse once a day at a dose of 2 g/kg (hereinafter referred to as “2 g/kg administration group”) were prepared.
Evaluation was performed in the same manner as in the test with oxaliplatin. Referring to FIG. 4, the horizontal axis indicates the elapsed time after administration (days) and the vertical axis indicates the avoidance response time (seconds). Open circles with a solid line represent the control group. Filled circles with a solid line represent the group in which only paclitaxel was administered. Open squares with a dash line and filled squares with a dash line represent the groups in which paclitaxel and the Lentinus edodes mycelium extract were administered at the same time (paclitaxel+Lentinus edodes mycelium extract administration groups). […] When the difference with the control group was determined to be significant using a significance level of 5%, the data were marked by “*”. […]

[2] = tested on: Peripheral Sensory Neuropathy Induced by Paclitaxel in Mice; assay: von Frey test, paclitaxel-induced peripheral sensory neuropathy; format: in vivo; conditions: paclitaxel 6 mg/kg once a week alone, compared with control group; three days after the administration
Source text: The mice in the three groups in the above (1) were put in a cage and a filament having a strength of 0.16 g was pressed on the plantar surface of the leg to measure the number of times (a score) of avoidance response.
Male Balb/c mice of 6 to 7 weeks old were used as in Example 1. The mice were divided into three groups: a control group, a paclitaxel administration group, and a paclitaxel and Lentinus edodes mycelium extract administration group (paclitaxel+Lentinus edodes mycelium extract administration group). Paclitaxel was administered to each mouse once a day at a dose of 6 mg/kg. Further, the Lentinus edodes mycelium extract was administered to each mouse once a day at a dose of 2 g/kg.
Further, the number of times of administration was set to once a week (on Day 0, Day 7, and Day 14) for paclitaxel and daily (from Day 0 to Day 15) for the Lentinus edodes mycelium extract in both the von Frey test and the cold plate test below.
Evaluation was performed in the same manner as in the test with oxaliplatin. Referring to FIG. 3, the horizontal axis indicates an elapsed time after administration (days) and the vertical axis indicates the avoidance response (scores). Open circles with a solid line represent the control group. Filled circles with a solid line represent the group in which only paclitaxel was administered. Open squares with a dash line represent the group in which paclitaxel and the Lentinus edodes mycelium extract were administered (paclitaxel+Lentinus edodes mycelium extract administration group). When the difference with the control group was determined to be significant using a significance level of 5%, the data were marked by “*”.
In the present test, the mice were divided into six groups by a difference in test objects. As in Example 1, male Balb/c mice of 6 to 7 weeks old were used. […]

- latency to the cold stimulation (avoidance response time), cold plate test [1]: significantly reduced
- avoidance response (scores), von Frey test [2]: significantly increased
SMILES: CC(=O)O[C@H]1C(=O)[C@@]2(C)[C@H]([C@H](OC(=O)c3ccccc3)[C@]3(O)C[C@H](OC(=O)[C@H](O)[C@@H](NC(=O)c4ccccc4)c4ccccc4)C(C)=C1C3(C)C)[C@]1(OC(C)=O)CO[C@@H]1C[C@@H]2O [paclitaxel]
